For data set [1], the target named is T1, Angiotensin-converting enzymes (ACE) from porcine kidneys (EC 3.4.15.1) (Sus scrofa, UniProt F1RRW5).
T1 construct: Angiotensin-converting enzymes (ACE) from porcine kidneys (EC 3.4.15.1) were purchased from Sigma-Aldrich; purchased Sigma-Aldrich (St. Louis, MO, USA); host or cells: porcine kidneys (tissue-derived enzyme)
T1 sequence (F1RRW5 34-1309): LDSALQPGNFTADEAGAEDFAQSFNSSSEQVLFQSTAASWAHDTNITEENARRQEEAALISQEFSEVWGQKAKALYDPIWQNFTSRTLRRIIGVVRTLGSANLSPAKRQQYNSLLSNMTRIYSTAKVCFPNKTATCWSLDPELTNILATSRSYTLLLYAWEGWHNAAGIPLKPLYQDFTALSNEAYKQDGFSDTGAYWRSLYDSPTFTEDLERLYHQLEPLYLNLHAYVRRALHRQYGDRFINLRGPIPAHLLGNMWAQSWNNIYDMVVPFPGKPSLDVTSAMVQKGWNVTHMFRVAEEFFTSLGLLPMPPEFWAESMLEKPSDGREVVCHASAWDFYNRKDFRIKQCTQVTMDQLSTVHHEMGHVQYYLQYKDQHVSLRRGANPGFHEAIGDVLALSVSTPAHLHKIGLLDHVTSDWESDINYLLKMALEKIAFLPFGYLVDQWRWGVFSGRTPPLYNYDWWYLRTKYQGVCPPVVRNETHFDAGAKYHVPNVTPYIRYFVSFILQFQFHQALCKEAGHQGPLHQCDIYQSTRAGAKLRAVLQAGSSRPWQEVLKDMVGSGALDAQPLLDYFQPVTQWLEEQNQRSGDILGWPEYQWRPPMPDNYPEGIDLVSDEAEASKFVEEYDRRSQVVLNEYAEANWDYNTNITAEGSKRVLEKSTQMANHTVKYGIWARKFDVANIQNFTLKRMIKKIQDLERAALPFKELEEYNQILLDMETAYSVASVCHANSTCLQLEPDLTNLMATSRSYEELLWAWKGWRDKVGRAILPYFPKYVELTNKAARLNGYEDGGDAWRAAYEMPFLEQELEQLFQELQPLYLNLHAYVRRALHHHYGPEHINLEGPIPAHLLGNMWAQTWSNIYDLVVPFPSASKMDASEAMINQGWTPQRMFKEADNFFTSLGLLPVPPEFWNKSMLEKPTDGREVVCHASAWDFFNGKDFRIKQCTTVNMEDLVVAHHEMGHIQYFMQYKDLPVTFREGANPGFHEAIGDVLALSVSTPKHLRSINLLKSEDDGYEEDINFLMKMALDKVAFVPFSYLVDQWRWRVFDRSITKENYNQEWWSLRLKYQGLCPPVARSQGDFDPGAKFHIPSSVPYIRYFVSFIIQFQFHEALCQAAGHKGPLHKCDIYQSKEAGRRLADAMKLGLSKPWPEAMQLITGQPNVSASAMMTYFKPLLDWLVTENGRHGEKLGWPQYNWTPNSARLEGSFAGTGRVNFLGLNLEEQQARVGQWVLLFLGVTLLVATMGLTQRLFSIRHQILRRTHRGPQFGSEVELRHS
The data set can be described thus: biochemical. As to the method:
Angiotensin-converting enzymes (ACE) from porcine kidneys (EC 3.4.15.1) were purchased from Sigma-Aldrich (St. Louis, MO, USA). A three-tris-base buffer was as follows: buffer A: 300 mM Tris-base buffer (pH 8.3) with 2 mM ZnCl2; buffer B: 150 mM Tris-base buffer (pH 8,3); and buffer C: 150 mM Tris-base buffer (pH 8.3) with […] NaCl. The substrate o-aminobenzoylglycyl-p-nitorphenylalanylproline (Abz-Gly-Phe(NO2)-Pro) was obtained from BACHEM (Bubendorf, Switzerland). Standards of phenolic acids, flavonoids, glucosides, and low-molecular-weight phenolic metabolites were obtained from Sigma-Aldrich (St. Louis, MO, USA) and Extrasynthese (Genay, France). Water was purified using the Mili-Q system (Milipore, Bedford, MA, USA).
Stock solutions at 1 mM of selected phenolic acids, flavonoids, their O-glucosides, and low-molecular-weight phenolic metabolites were prepared in 80% methanol. The concentration was confirmed by a UV measurement according to Franke et al.. A wide range of concentrations of each compound was prepared by serial dilutions in deionized water to determine the IC50 value. […] The ACE inhibitory activity was obtained from three repetitions (n = 3) for each concentration.
Angiotensin-converting enzyme (ACE) activity inhibitory assay was performed according to the method of Sentandreu and Toldra. The procedure was based on the hydrolysis of the internally quenched substrate o-aminobenzoylglycyl-p-nitorphenylalanylproline (Abz-Gly-Phe(NO2)-Pro) by the reaction of ACE. The fluorescence generated by the liberation of the product (the o-aminobenzoylglycine group) was read in a microplate multiscan fluorometer. The production of fluorescence was inhibited by the presence of functional compounds with an ACE inhibitory effect. The fluorescence was measured immediately after mixing (0 min) and then after 30 min of reaction at an excitation of 365 nm and an emission of 405 nm. To calculate the % of inhibition of ACE, the following equation was used:Relative ACE activity% = 100 − (ΔRFUsample × 100/ΔRFUnegative control), where ΔRFU = RFU at time 30 – RFU at time 0.

Data set [2] can be described thus: First anodic oxidation potential by differential pulse voltammetry (DPV). The format is physicochemical. Particulars: DPV, first anodic peak, 0.25 mM standard in 0.1 M Britton-Robinson buffer pH 6.0 in 80% methanol, glassy carbon vs Ag/AgCl, 100 mV/s. As to the method:
A potentiostat/galvanostat G 750 (Gamry Instruments, Warminster, USA) was used for voltametric experiments. A conventional three-electrode system: a 3 mm diameter glassy carbon working electrode (BAS MF-2012), an Ag/AgCl electrode as a reference electrode, and a platinum as counter electrode, was used in the study. Differential pulse voltametric experiments were performed with phenolic acids and flavonoids prepared in a 1:1 (v/v) mixture of 500 µM standard solution and […] Britton-Robinson (B-R) buffer (pH 6.0 in 80% methanol), which also served as a supporting electrolyte. The voltametric experiments were performed at room temperature using an electrochemical cell (volume 200 µL), to which the analyzed standard solution, mixed previously with the buffer solution, was introduced. The differential pulse voltammograms were acquired in the range of −100 to 1300 mV at a scanning rate of 100 mV/s. Before use, the surface of the glassy carbon electrode was carefully polished with 0.05 µm alumina paste, ultrasonically rinsed in deionized water, and then washed with methanol. This procedure was repeated after each cycle. For test purposes, the first anodic oxidation potential was recorded (mV).

The subject of data set [3] is formation of advanced glycation end products. Also on record: method as in PMID 27709826. To be noted: cited from earlier work.
Data set [4] concerns ACE. To be noted: cited from earlier work; for IC50: read-out: IC50 (ACE inhibitory activity).
Data set [5] has as its system ACE. Also on record: method as in PMID 23185345. To be noted: same fluorometric method as this study; read-out: IC50 (ACE inhibition); cited from earlier work.
Setting [6] is: porcine kidney ACE, substrate Abz-Gly-Phe(NO2)-Pro, fluorescence after 30 min, mean ± SD, read-out: IC50 Value (ACE inhibitory activity).

These results are taken from article PMC12298876, “Angiotensin-Converting Enzyme Inhibitory Activity of Selected Phenolic Acids, Flavonoids, Their O-Glucosides, and Low-Molecular-Weight Phenolic Metabolites in Relation to Their Oxidation Potentials” (Metabolites, 2025).

Read-outs that look alike come from different tables or passages of the source. Marks after values point to notes of the source that are not given here.

In the case of `O=C(O)Cc1ccc(O)c(O)c1` [3,4-DHPAA, 3,4-dihydroxyphenylacetic acid], the IC50 in data set [1] (setting [6]) amounted to 0.6728 ± 0.00493 mM. For the same compound, the “Anodic Peak Potential Epa” value in data set [2] is 432 ± 6 ^g mV. For the same compound, the “inhibitory activity against the formation of advanced glycation end products” value in data set [3] is “strong inhibitory activity”.

As to `O=C(O)/C=C/c1ccc(O)c(O)c1` [Caffeic acid], the IC50 was 9.11 mM in data set [1] (setting [6]); 9.11 ± 0.06 mM in data set [1] (values of this study restated in mM in the discussion, read-out: IC50 (ACE inhibition)); 8970 ± 80 µM with ACE [4]. Moreover, the “Anodic Peak Potential Epa” value is listed as 397 ± 8 ^e mV in data set [2] and 397 mV in data set [2] (listed as caffeic acid).

Regarding `O=c1cc(-c2ccc(O)c(O)c2)oc2cc(O)cc(O)c12` [Luteolin], the “IC50 lower than the value for naringenin” value in data set [1] (ACE inhibition) is recorded as “fivefold”. For the same compound, the IC50 in data set [1] (setting [6]) is 0.0771 ± 0.00255 mM; in the data set with ACE [5], 23 µM. In addition, the “Anodic Peak Potential Epa” value in data set [2] is 407 ± 5 ^f mV.

Turning to `C[C@@H]1O[C@@H](OC[C@H]2O[C@@H](Oc3c(-c4ccc(O)c(O)c4)oc4cc(O)cc(O)c4c3=O)[C@H](O)[C@@H](O)[C@@H]2O)[C@H](O)[C@H](O)[C@H]1O` [Rutin, quercetin-O-3-rutinoside], the “lower IC50 in relation to the respective aglycone” value in data set [1] (ACE inhibition, glycoside vs aglycon) was determined as 50%. For the same compound, the IC50 in data set [1] (IC50 Value (ACE inhibitory activity), porcine kidney ACE, substrate Abz-Gly-Phe(NO2)-Pro, fluorescence after 30 min, mean ± SD) was 0.0593 mM; in the data set on ACE [5], 64 µM. Also, the “Anodic Peak Potential Epa” value in data set [2] is on record as 389 ± 4 ^g mV.

`O=C(CCc1ccc(O)cc1)c1c(O)cc(O)cc1O` [phloretin]: in the data set on ACE [4], the “IC50 higher than the IC50 of phloretin 2′-O-glucose” value is 25% and the IC50 is 286.8 ± 2.54 µM.
